Source: PubChem BioAssay (NCI)
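Dose response: 5 concentrations. Exposure: 48 h. Format: 96-well plates. Endpoint: linear interpolation; highest concentration if not reached. Definition used: TGI = concentration required for complete inhibition of growth.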

Tests used:
Experiment in all cases: growth of human tumour cells (NCI), 48 h
[1] = test system: KM12 colon
[2] = test system: SNB-75 CNS
[3] = test system: SK-OV-3 ovarian
[4] = test system: NCI/ADR-RES ovarian
[5] = test system: MOLT-4 leukemia
[6] = test system: COLO 205 colon
[7] = test system: NCI-H226 lung
[8] = test system: OVCAR-4 ovarian
[9] = test system: PC-3 prostate
[10] = test system: CCRF-CEM leukemia
[11] = test system: T-47D breast
[12] = test system: SF-539 CNS
[13] = test system: SF-268 CNS
[14] = test system: HOP-62 NSCLC
[15] = test system: NCI-H522 lung
[16] = test system: BT-549 breast
[17] = test system: SNB-19 CNS
[18] = test system: LOX IMVI melanoma
[19] = test system: HOP-92 NSCLC
[20] = test system: U251 CNS
[21] = test system: MDA-N
[22] = test system: RPMI-8226 leukemia
[23] = test system: OVCAR-3 ovarian
[24] = test system: SW-620 colon
[25] = test system: K-562 leukemia
[26] = test system: SN12C renal
[27] = test system: UO-31 renal
[28] = test system: SR leukemia
[29] = test system: HT29 colon
[30] = test system: HCC-2998 colon
[31] = test system: HS 578T breast
[32] = test system: CAKI-1 renal
[33] = test system: EKVX NSCLC
[34] = test system: OVCAR-8 ovarian
[35] = test system: HL-60(TB) leukemia
[36] = test system: MALME-3M melanoma
[37] = test system: HCT-116 colon
[38] = test system: M14 melanoma
[39] = test system: NCI-H23 lung
[40] = test system: SF-295 CNS
[41] = test system: UACC-62 melanoma
[42] = test system: MDA-MB-231 breast
[43] = test system: A549 NSCLC
[44] = test system: 786-0 renal
[45] = test system: OVCAR-5 ovarian
[46] = test system: ACHN renal
[47] = test system: SK-MEL-5 melanoma
[48] = test system: A498 renal
[49] = test system: DU-145 prostate
[50] = test system: SK-MEL-28 melanoma
[51] = test system: HCT-15 colon
[52] = test system: MDA-MB-435
[53] = test system: NCI-H460 lung
[54] = test system: IGROV1 ovarian
[55] = test system: MCF7 breast
[56] = test system: SK-MEL-2 melanoma
[57] = test system: UACC-257 melanoma
[58] = test system: TK-10 renal
[59] = test system: RXF 393 renal

COC(=O)C1C(OC(=O)c2ccccc2)CC2CCC1N2C(N)=O (centres undefined)
TGI [1]: > 100 µM | TGI [2]: > 100 µM | TGI [3]: > 100 µM | TGI [4]: > 100 µM | TGI [5]: > 100 µM | TGI [6]: > 100 µM | TGI [7]: > 100 µM | TGI [8]: > 100 µM | TGI [9]: > 100 µM | TGI [10]: > 100 µM | TGI [11]: > 100 µM | TGI [12]: > 100 µM | TGI [13]: > 100 µM | TGI [14]: > 100 µM | TGI [15]: > 100 µM | TGI [16]: > 100 µM | TGI [17]: > 100 µM | TGI [18]: > 100 µM | TGI [19]: > 100 µM | TGI [20]: > 100 µM | TGI [21]: > 100 µM | TGI [22]: > 100 µM | TGI [23]: > 100 µM | TGI [24]: > 100 µM | TGI [25]: > 100 µM | TGI [26]: > 100 µM | TGI [27]: > 100 µM | TGI [28]: > 100 µM | TGI [29]: > 100 µM | TGI [30]: > 100 µM | TGI [31]: > 100 µM | TGI [32]: > 100 µM | TGI [33]: > 100 µM | TGI [34]: > 100 µM | TGI [35]: > 100 µM | TGI [36]: > 100 µM | TGI [37]: > 100 µM | TGI [38]: > 100 µM | TGI [39]: > 100 µM | TGI [40]: > 100 µM | TGI [41]: > 100 µM | TGI [42]: > 100 µM | TGI [43]: > 100 µM | TGI [44]: > 100 µM | TGI [45]: > 100 µM | TGI [46]: > 100 µM | TGI [47]: > 100 µM | TGI [48]: > 100 µM | TGI [49]: > 100 µM | TGI [50]: > 100 µM | TGI [51]: > 100 µM | TGI [52]: > 100 µM | TGI [53]: > 100 µM | TGI [54]: > 100 µM | TGI [55]: > 100 µM | TGI [56]: > 100 µM | TGI [57]: > 100 µM

Cc1cc(C)c(C2=NOC(c3ccccc3)(c3cc(=O)n(-c4ccccc4)s3)O2)c(C)c1 (centres undefined)
TGI [1]: > 100 µM | TGI [2]: > 100 µM | TGI [3]: > 100 µM | TGI [4]: 68.1 µM | TGI [5]: > 100 µM | TGI [58]: 77.1 µM | TGI [6]: 63.4 µM | TGI [7]: 57.1 µM | TGI [8]: > 100 µM | TGI [9]: > 100 µM | TGI [10]: > 100 µM | TGI [11]: 44 µM | TGI [13]: > 100 µM | TGI [14]: > 100 µM | TGI [15]: 35.8 µM | TGI [16]: 52.4 µM | TGI [17]: > 100 µM | TGI [18]: 30.7 µM | TGI [19]: 62.5 µM | TGI [20]: 66.4 µM | TGI [21]: > 100 µM | TGI [22]: > 100 µM | TGI [24]: > 100 µM | TGI [25]: > 100 µM | TGI [26]: > 100 µM | TGI [27]: 47.1 µM | TGI [28]: > 100 µM | TGI [29]: 41.2 µM | TGI [30]: > 100 µM | TGI [31]: > 100 µM | TGI [32]: 33.7 µM | TGI [33]: 50.2 µM | TGI [34]: 36.5 µM | TGI [35]: > 100 µM | TGI [36]: 40.1 µM | TGI [37]: > 100 µM | TGI [38]: 76.8 µM | TGI [39]: 53.4 µM | TGI [59]: 33.3 µM | TGI [40]: > 100 µM | TGI [41]: 51.5 µM | TGI [42]: 95 µM | TGI [43]: > 100 µM | TGI [44]: 41.3 µM | TGI [45]: 40.9 µM | TGI [46]: 52.2 µM | TGI [47]: > 100 µM | TGI [48]: > 100 µM | TGI [49]: > 100 µM | TGI [50]: 94.4 µM | TGI [51]: 41 µM | TGI [52]: > 100 µM | TGI [53]: > 100 µM | TGI [54]: > 100 µM | TGI [55]: 37.2 µM | TGI [56]: 89.5 µM | TGI [57]: > 100 µM
